The target in assay [1] is T1, METTL3 (Homo sapiens, UniProt Q86U44).
T1 construct: 10x His (thrombin-cleavable); made in house; host or cells: insect cells, baculovirus (pVL1393)
Description: Bioluminescence enzyme assay, single form of METTL3. The format is biochemical. To be noted: 1 μM METTL3, 1 μM SAM, 500 nM RNA, 5 h; read-out: IC50, single subunit enzyme form of METTL3. As for the experimental part:
An enzymatic bioluminescence assay was established to identify the METTL3-14 inhibitor through screening. […] METTL3-14 activity was assessed by measuring the luminescence using a Victor multilabel reader (PerkinElmer, Waltham, MA, USA). The IC50 values were calculated by a nonlinear regression analysis using OriginPro 9.1 software (OriginLab).
To confirm the mechanism of action of eltrombopag in the METTL3-14 complex, 30 nM METTL3-14 and serially diluted eltrombopag were reacted with various concentrations of SAM or RNA substrate and saturating concentrations of the other substrate (3 μM SAM or 2 μM RNA substrate) for 20 min. To evaluate the inhibitory activity in a single form of METTL3 and METTL14, 1 μM of METTL3 and 300 nM of METTL14 were incubated with 1 μM of SAM, 500 nM of RNA substrates, and serially diluted eltrombopag for 5 h. To measure the inhibitory activity in the truncated form of the METTL3-14 complex, 1 μM of the truncated METTL3-14 complex was reacted with 1 μM of SAM, 500 nM of RNA substrates, and serially diluted eltrombopag for 5 h.

Assay [2] deals with m^6A/A on poly-A+-enriched mRNA of MOLM-13 cells. Kind of assay: Quantitative analysis of m^6A level on poly-A+-enriched mRNA by mass spectrometry. As to conditions: Homo sapiens. Type of assay: cell-based. As to the method:
The MOLM-13 cells were seeded in 10 cm^2 dishes at a density of 1.5 × 10^6 cells/mL with 10 mL of complete medium. After 24 h, the plated cells were treated with the vehicle (DMSO) or serial dilutions of eltrombopag and incubated for 24 h. Following incubation in the cell culture incubator, total RNA was extracted using TRIsure^TM (Bioline, Brisbane, Australia) according to the manufacturer’s instructions. Then, poly-A^+-enriched mRNA was purified from the extracted total RNA using the Magnosphere^TM ultrapure mRNA purification kit (Takara, Shiga, Japan). One microgram of mRNA was digested to the nucleosides using 2 units of nuclease P1 (NEB) and dephosphorylated using 1 unit of alkaline phosphatase (NEB) at 37 °C for 2 h.
The produced nucleosides were detected by reversed-phase high-performance liquid chromatography on an ACQUITY BEH C18 column (1.7 μm, 2.1 mm × 50 mm; Waters) coupled with mass spectrometry detection using an EVOQ Elite ER LC-TQ (Bruker). The adenosine and m^6A were quantified using MRM transition as follows: m/z = 267.9 -> 136.1 and m/z = 282.1 -> 150.1, respectively. (Retention time 5 min). The m^6A/A nucleoside ratio of the eltrombopag-treated sample was normalized to the corresponding value of the DMSO treated negative control. The inhibition curves were plotted using OriginPro 9.1 software (OriginLab) and fitted using nonlinear regression analysis.

The target of assay [3] is T2, METTL3-14 complex (Homo sapiens, UniProt Q86U44).
T2 construct: genes encoding the full-length and MTase domain of human METTL3; METTL3-14 FL: full length of METTL3-14; 10x His (thrombin-cleavable) (cleaved yes); made in house; host or cells: Trichoplusia ni (Hi5) cells co-infected with two baculoviruses (virus made in Sf9)
Kind of assay: Mass spectrometry based METTL3-14 enzyme based assay (m^6A level of single strand RNA substrate). The format is biochemical. As to conditions: read-out: IC50, METTL3-14 inhibition, mass spectrometric enzyme based assay. As to the method:
The 30 nM of METTL3-14 was incubated with 300 nM of SAM, 300 nM of RNA substrates, and serially diluted compounds at 23 °C for 1 h as described above. The enzymatic reaction was stopped by heating at 80 °C for 10 min and centrifuged at 15,000× g for 10 min. Then, the reacted RNA in the supernatant was digested to nucleosides by using 2 units of nuclease P1 (NEB, Ipswich, MA, USA) and dephosphorylated by using 1 unit of alkaline phosphatase (NEB) at 37 °C for 2 h.
The produced nucleosides were detected by reversed-phase high-performance liquid chromatography on an ACQUITY BEH C18 column ([…], 2.1 mm × 50 mm; Waters) coupled with mass spectrometry detection using an EVOQ Elite ER LC-TQ (Bruker, Billerica, MA, USA). The adenosine and m^6A were quantified using an MRM transition as follows: m/z = 267.9 -> 136.1 and m/z = 282.1 -> 150.1, respectively. (Retention time 5 min). The m^6A/A nucleoside ratio of the eltrombopag-treated sample was normalized to the corresponding value of the DMSO treated negative control. The IC50 values were calculated by a nonlinear regression analysis using OriginPro 9.1 software (OriginLab).

Assay [4] deals with T3, MLL4 complex (Homo sapiens, UniProt Q9UMN6).
T3 construct: purchased Reaction Biology (Malvern, PA, USA), contract assay
Description: Methyltransferase selectivity panel (MT HotSpot radioisotope assay), MLL4 complex. As to conditions: 10 μM eltrombopag. Type of assay: biochemical. As to the method:
The selectivity profile of eltrombopag was investigated by testing the level of inhibition in a methyltransferase panel. The inhibition of 7 […] methyltransferase was tested at Reaction Biology (Malvern, PA, USA) using a gold standard radioisotope-based MT assay (MT HotSpot^TM) with 10 μM of eltrombopag in duplicate.

Broadly, the inhibition is how much of the control response was suppressed. For orientation: remaining activity means the activity still measured, relative to the control.

T1 sequence (Q86U44 whole entry): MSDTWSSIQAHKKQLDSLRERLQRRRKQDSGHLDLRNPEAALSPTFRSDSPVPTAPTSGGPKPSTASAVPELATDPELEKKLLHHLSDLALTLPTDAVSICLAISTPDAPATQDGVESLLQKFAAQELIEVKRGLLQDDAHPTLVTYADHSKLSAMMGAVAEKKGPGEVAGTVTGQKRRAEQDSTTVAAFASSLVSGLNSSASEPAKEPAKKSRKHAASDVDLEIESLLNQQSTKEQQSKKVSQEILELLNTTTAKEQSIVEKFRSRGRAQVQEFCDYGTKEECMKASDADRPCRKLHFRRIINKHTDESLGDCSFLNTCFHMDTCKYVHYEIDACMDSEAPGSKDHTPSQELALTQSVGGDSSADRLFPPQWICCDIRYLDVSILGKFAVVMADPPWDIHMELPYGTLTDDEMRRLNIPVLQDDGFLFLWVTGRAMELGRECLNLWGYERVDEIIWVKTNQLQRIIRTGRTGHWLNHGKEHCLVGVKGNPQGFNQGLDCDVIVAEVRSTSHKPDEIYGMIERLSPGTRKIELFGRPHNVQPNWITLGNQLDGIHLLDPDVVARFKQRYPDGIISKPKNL
T2 sequence (Q86U44 whole entry, the tested form may be a part): as the sequence (Q86U44 whole entry) above
T2 sequence (Q9HCE5 whole entry partner, the tested form may be a part): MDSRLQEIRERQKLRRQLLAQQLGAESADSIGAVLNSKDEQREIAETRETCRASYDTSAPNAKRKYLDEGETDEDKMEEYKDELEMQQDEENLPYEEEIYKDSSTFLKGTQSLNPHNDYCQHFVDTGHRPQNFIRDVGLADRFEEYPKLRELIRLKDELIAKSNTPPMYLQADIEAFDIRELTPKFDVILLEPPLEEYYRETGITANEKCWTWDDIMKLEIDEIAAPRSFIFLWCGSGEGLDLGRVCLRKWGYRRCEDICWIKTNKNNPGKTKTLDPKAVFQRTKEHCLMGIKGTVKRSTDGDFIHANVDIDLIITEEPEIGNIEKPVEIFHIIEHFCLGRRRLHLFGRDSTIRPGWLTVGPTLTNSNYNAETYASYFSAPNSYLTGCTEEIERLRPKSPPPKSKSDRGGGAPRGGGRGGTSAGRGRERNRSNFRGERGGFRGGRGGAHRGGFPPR

As for `CC1=NN(c2ccc(C)c(C)c2)C(=O)/C1=N\Nc1cccc(-c2cccc(C(=O)O)c2)c1O` [Eltrombopag], the IC50 in assay [1] is 7.04 µM; in assay [2] (MOLM-13, 24 h treatment, read-out: IC50 of m^6A/A reduction on poly-A+-enriched mRNA) it was 17.3 ± 3.5 µM; in assay [3] it was 4.55 µM. In assay [2] (MOLM-13, 40 μM, 24 h, read-out: maximum m^6A inhibition), the inhibition at 40 µM is 50%. For the same molecule, the remaining activity at 10 µM in assay [4] was determined as 70.9 ± 2.4%.

The values are drawn from publication PMC9032718, “Eltrombopag as an Allosteric Inhibitor of the METTL3-14 Complex Affecting the m^6A Methylation of RNA in Acute Myeloid Leukemia Cells” (Pharmaceuticals, 2022).
